# Source: patent publication US20070225256A1, “COMPOUND” (priority 2004, published 2007)
# Like-named read-outs stand apart in the source and are kept apart here.
# Tests used:
# [1] = cited from earlier work
# steroid sulphatase = biological target: T1, steroid sulphatase (Homo sapiens, UniProt P08842); conditions: compared with EMATE; cited from earlier work
# T1 sequence (P08842 22-583): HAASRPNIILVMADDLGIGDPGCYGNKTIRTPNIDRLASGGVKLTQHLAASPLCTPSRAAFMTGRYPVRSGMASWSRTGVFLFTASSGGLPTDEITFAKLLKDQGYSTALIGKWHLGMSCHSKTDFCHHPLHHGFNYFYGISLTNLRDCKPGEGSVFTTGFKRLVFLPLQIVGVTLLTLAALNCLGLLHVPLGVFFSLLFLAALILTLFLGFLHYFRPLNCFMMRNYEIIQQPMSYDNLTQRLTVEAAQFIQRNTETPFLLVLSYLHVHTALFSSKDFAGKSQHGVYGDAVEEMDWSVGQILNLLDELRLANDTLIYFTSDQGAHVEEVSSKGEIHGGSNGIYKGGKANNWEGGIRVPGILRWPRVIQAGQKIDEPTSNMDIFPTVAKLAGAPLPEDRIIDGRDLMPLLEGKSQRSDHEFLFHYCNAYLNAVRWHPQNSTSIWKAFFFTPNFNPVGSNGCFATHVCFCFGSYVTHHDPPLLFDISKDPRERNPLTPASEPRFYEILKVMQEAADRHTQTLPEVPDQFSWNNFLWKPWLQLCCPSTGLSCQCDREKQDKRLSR
# MCF-7 = experiment: Inhibition of MCF-7 cell proliferation; format: cell-based; conditions: for IC50: read-out: Concentration for 50% inhibition of MCF-7 proliferation
# Experimental: MCF-7 breast cancer cells are seeded into multi-well culture plates at a density of 10^5 cells/well. Cells were allowed to attach and grown until about 30% confluent when they are treated as follows:
# Cells are grown for 6 days in growth medium containing the COI with changes of medium/COI every 3 days. At the end of this period cell numbers were counted using a Coulter cell counter.
# Inhibition of MCF-7 Cell Proliferation
# [2] = cited from earlier work; remark: listed apart in the source
# E1-STS [3] = biological target: T2, E1-STS (Homo sapiens, UniProt P08842); parameters: endogenous in cells; host or cells: MCF-7; conditions: 0.1 nM; cited from earlier work
# T2 sequence (P08842 22-583): T1 sequence (P08842 22-583)
# E1-STS [4] = biological target: T2, E1-STS; conditions: compared with EMATE; cited from earlier work
molecule,measurement,setting,value
COc1cc2c(cc1OS(N)(=O)=O)CC[C@@H]1[C@@H]2CC[C@]2(C)C(=O)CC[C@@H]12 [2-methoxyoestrone-3-O-sulphamate],oestrogenicity,"[1]; rat, in vivo",devoid of oestrogenicity
same,potency as a steroid sulphatase inhibitor,steroid sulphatase,equipotent with EMATE
"CCc1cc2c(cc1OS(N)(=O)=O)CC[C@@H]1[C@@H]2CC[C@]2(C)C(CS(C)(=O)=O)CC[C@@H]12 (some centres unmarked) [Compound 8, 2-Ethyl-3-O-sulfamoyl-17-methanesulfonylmethyl estrone]",% Inhibition of MCF-7 proliferation at 10 μM,MCF-7,79%
"CCc1cc2c(cc1OS(N)(=O)=O)CC[C@@H]1[C@@H]2CC[C@]2(C)[C@@H](CC)CC[C@@H]12 [Compound 11, 2-Ethyl-3-O-sulfamoyl-17-β-ethyl-17-deoxy estrone]",% Inhibition of MCF-7 proliferation at 10 μM,MCF-7,83%
"CCc1cc2c(cc1OS(N)(=O)=O)CC[C@@H]1[C@@H]2CC[C@]2(C)[C@@H](CCF)CC[C@@H]12 [Compound 14, 2-Ethyl-3-O-sulfamoyl-17β-(2-fluoro-ethyl)-17-deoxy estrone]",% Inhibition of MCF-7 proliferation at 10 μM,MCF-7,89%
"CCc1cc2c(cc1OS(N)(=O)=O)CC[C@@H]1[C@@H]2CC[C@]2(C)[C@@H](C[N+](=O)[O-])CC[C@@H]12 [Compound 23, 2-Ethyl-3-O-sulfamoyl-17β-nitromethyl-17-deoxy estrone]",% Inhibition of MCF-7 proliferation at 10 μM,MCF-7,<50%
"CCc1cc2c(cc1OS(N)(=O)=O)CC[C@@H]1[C@@H]2CC[C@]2(C)[C@@H](CC(C)=O)CC[C@@H]12 [Compound 29, 2-Ethyl-3-O-sulfamoyl-17β-(2-oxopropyl) estrone]",% Inhibition of MCF-7 proliferation at 10 μM,MCF-7,69%
"COc1cc2c(cc1O)CCC1C2CC[C@@]2(C)C1CC[C@@H]2OC(N)=O (some centres unmarked) [Compound 57, 2-Methoxy-estradiol-17-carbamate]",IC50,"MCF-7; Homo sapiens, MCF7",44 µM
"COc1cc2c(cc1OS(N)(=O)=O)CC[C@@H]1[C@@H]2CC[C@]2(C)[C@@H](OC(N)=O)CC[C@@H]12 [Compound 58, 2-Methoxy-3-O-sulfamoyl estradiol-17-carbamate]",IC50,MCF-7,1.8 µM
"C[C@]12CC[C@@H]3c4ccc(OS(=O)(=O)O)cc4CC[C@H]3[C@@H]1CCC2=O [Compound E1S, oestrone sulphate]",half-life in blood,[2],10 to 12 h
"CC12CCC3c4ccc(OS(N)(=O)=O)cc4CCC3C1CCC2=O (centres unmarked) [EMATE, oestrone-3-sulphamate]",oral uterotrophic activity relative to estradiol,"[1]; rats, oral",100 times
same,inhibition of E1-STS activity in intact MCF-7 cells,E1-STS [3],more than 99%
oestrone-3-N-sulphamate,E1-STS inactivation,E1-STS [4],weaker non-time-dependent inactivators
oestrone-3-S-sulphamate,E1-STS inactivation,E1-STS [4],weaker non-time-dependent inactivators
